Tests used:
Type in all cases: cell-based
BHK-21 cells = assay: Anti-fibrosis activity test: inhibition of BHK-21 cell proliferation (CCK-8); settings: Mesocricetus auratus, BHK-21, 48 h
Method in brief: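 Cells seeded at 2×10^4 cells/mL, allowed to adhere 24 hours, then exposed to graded compound concentrations in triplicate for 48 hours at 37° C, 5% CO2. CCK-8 added for 2 hours, absorbance read at 450 nm; inhibition versus blank control used to derive IC50. Pirfenidone served as positive control.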

[1] = tested on: human lung fibroblasts HFL1; assay: Anti-fibrosis activity test: inhibition of proliferation of human lung fibroblasts HFL1 (CCK-8); settings: Homo sapiens, HFL1, 48 h
Method in brief: (§1)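 Cells were seeded at 2×10^4 cells/mL and allowed to adhere for 24 h at 37° C, 5% CO2, then exposed to graded compound concentrations in triplicate for 48 h. CCK-8 was added for 2 h, A450 was read, and IC50 was derived from inhibition rate = (1−Ai/Ao)×100%.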

[2] = tested on: human hepatic stellate cells LX-2; assay: Anti-fibrosis activity test: inhibition of proliferation of human hepatic stellate cells LX-2 (CCK-8); settings: Homo sapiens, 48 h
Method in brief: as §1

[3] = tested on: human fibrosarcoma cells HT-1080; assay: Anti-fibrosis activity test: inhibition of proliferation of human fibrosarcoma cells HT-1080 (CCK-8); settings: Homo sapiens, HT-1080, 48 h
Method in brief: as §1

[4] = tested on: human dermal fibroblasts CCC-ESF-1; assay: Anti-fibrosis activity test: inhibition of proliferation of human dermal fibroblasts CCC-ESF-1 (CCK-8); settings: Fibroblast
Method in brief: as §1

[5] = tested on: human embryonic lung fibroblast IMR-90; assay: Anti-fibrosis activity test: inhibition of proliferation of human embryonic lung fibroblast IMR-90 (CCK-8)
Method in brief: as §1

[6] = tested on: cardiac fibroblast RAT-iCell-C002; assay: Anti-fibrosis activity test: inhibition of proliferation of cardiac fibroblast RAT-iCell-C002 (CCK-8); settings: Cardiac fibroblast, 48 h
Method in brief: as §1

NF-κB = assay: Immunological activity test: inhibition of NF-κB activity; settings: initial concentration of 30 μM; a/b isomers given as first/second symbol; read-out: IC50 (μM), inhibitory activity against NF-κB
Method in brief: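 Compounds were first screened for inhibition of NF-κB activity at 30 μM, with parthenolide as the positive control. IC50 values were then determined for the compounds by further analysis of the assay data.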

[7] = tested on: mouse macrophages (RAW264.7); assay: Lipopolysaccharide-induced NO secretion in macrophages (Griess); settings: Mus musculus, RAW264.7, 24 h, RAW264.7, LPS 1 μg/ml, a/b isomers given as first/second symbol, read-out: IC50 (μM), inhibition of lipopolysaccharide-induced NO secretion in macrophages
Method in brief: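 RAW264.7 cells in DMEM with 10% FBS were treated with test compounds at several concentrations, then stimulated with LPS (1 μg/ml) for 24 hours. Nitrite in the supernatant was measured by Griess reaction at 548 nm, and percent inhibition was calculated against blank-medium controls.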

[8] = CCK-8, 48 hours after administration
[9] = human lung fibroblasts HFL1, CCK-8, 48 hours
[10] = human hepatic stellate cells LX-2, CCK-8, 48 hours
[11] = human fibrosarcoma cells HT-1080, CCK-8, 48 hours
[12] = human dermal fibroblasts CCC-ESF-1, CCK-8, 48 hours
[13] = human embryonic lung fibroblast IMR-90, CCK-8, 48 hours
[14] = cardiac fibroblast RAT-iCell-C002, CCK-8, 48 hours
[15] = Homo sapiens, CCC-ESF-1 cells, 48 h, CCK-8
[16] = Homo sapiens, IMR-90 cells, 48 h, CCK-8

Compound	IC50 [3, 11]	IC50 (NF-κB)	IC50 [7]	IC50 ([3]; HT-1080 cells, 48 h, CCK-8)	IC50 (BHK-21 cells; [8])	IC50 [1, 9]	IC50 [2, 10]	IC50 [4, 12]	IC50 [5, 13]	IC50 [6, 14]	IC50 (BHK-21 cells; 48 h, CCK-8)	IC50 ([1]; HFL1 cells, 48 h, CCK-8)	IC50 ([2]; LX-2, 48 h, LX-2 cells, CCK-8)	IC50 [4, 15]	IC50 [5, 16]	IC50 ([6]; RAT-iCell-C002 cells, CCK-8)
O=C1c2c(n(CCN3CCOCC3)c3ccccc3c2=O)-c2cccn21 [Compound 662a, 4-(2-Morpholinoethyl)-9H-pyrrolizino[1,2-b]quinoline-9,10(4H)-dione]	0.05 to 5 mM	0.1 to 1 µM	1 to 10 µM	–	0.05 to 5 mM	0.05 to 5 mM	0.05 to 5 mM	0.05 to 5 mM	0.05 to 5 mM	0.05 to 5 mM	–	–	–	–	–	–
O=C1c2c(n(CCCN3CCOCC3)c3ccccc3c2=O)-c2cccn21 [Compound 663a, 4-(3-Morpholinopropyl)-9H-pyrrolizino[1,2-b]quinoline-9,10(4H)-dione]	0.05 to 5 mM	1 to 10 µM	0.1 to 1 µM	–	< 0.05 mM	0.05 to 5 mM	0.05 to 5 mM	0.05 to 5 mM	0.05 to 5 mM	0.05 to 5 mM	–	–	–	–	–	–
O=C1c2c(n(CCCCN3CCOCC3)c3ccccc3c2=O)-c2cccn21 [Compound 664a, 4-(4-Morpholinobutyl)-9H-pyrrolizino[1,2-b]quinoline-9,10(4H)-dione]	0.05 to 5 mM	1 to 10 µM	0.1 to 1 µM	–	0.05 to 5 mM	0.05 to 5 mM	0.05 to 5 mM	0.05 to 5 mM	0.05 to 5 mM	0.05 to 5 mM	–	–	–	–	–	–
O=C1c2c(nc3ccccc3c2OCCCCN2CCOCC2)-c2cccn21 [Compound 664b, 9-(4-morpholinobutoxy)-10H-pyrrolizino[1,2-b]quinolin-10-one]	0.05 to 5 mM	1 to 10 µM	10 to 50 µM	–	0.05 to 5 mM	0.05 to 5 mM	0.05 to 5 mM	0.05 to 5 mM	0.05 to 5 mM	0.05 to 5 mM	–	–	–	–	–	–
O=C1c2c(n(CCN3CCCCC3)c3ccccc3c2=O)-c2cccn21 [Compound 665a, 4-(2-(Piperidin-1-yl)ethyl)-9H-pyrrolizino[1,2-b]quinoline-9,10(4H)-dione]	–	0.1 to 1 µM	1 to 10 µM	0.05 to 5 mM	–	–	–	–	–	–	0.05 to 5 mM	0.05 to 5 mM	< 0.05 mM	0.05 to 5 mM	0.05 to 5 mM	0.05 to 5 mM
O=C1c2c(n(CCCN3CCCCC3)c3ccccc3c2=O)-c2cccn21 [Compound 666a, 4-(3-(Piperidin-1-yl)propyl)-9H-pyrrolizino[1,2-b]quinoline-9,10(4H)-dione]	–	1 to 10 µM	1 to 10 µM	0.05 to 5 mM	–	–	–	–	–	–	0.05 to 5 mM	0.05 to 5 mM	0.05 to 5 mM	0.05 to 5 mM	0.05 to 5 mM	0.05 to 5 mM

More lines, main results first:

IC50 [3, 11]	IC50 (NF-κB)	IC50 [7]	IC50 ([3]; HT-1080 cells, 48 h, CCK-8)	Compound	IC50 (BHK-21 cells; [8])	IC50 [1, 9]	IC50 [2, 10]	IC50 [4, 12]	IC50 [5, 13]	IC50 [6, 14]	IC50 (BHK-21 cells; 48 h, CCK-8)	IC50 ([1]; HFL1 cells, 48 h, CCK-8)	IC50 ([2]; LX-2, 48 h, LX-2 cells, CCK-8)	IC50 [4, 15]	IC50 [5, 16]	IC50 ([6]; RAT-iCell-C002 cells, CCK-8)
0.05 to 5 mM	1 to 10 µM	1 to 10 µM	–	CS(=O)(=O)CCCOc1c2c(nc3ccccc13)-c1cccn1C2=O [Compound 659b, 9-(3-(methylsulfonyl)propoxy)-10H-pyrrolizino[1,2-b]quinolin-10-one]	0.05 to 5 mM	0.05 to 5 mM	0.05 to 5 mM	0.05 to 5 mM	0.05 to 5 mM	0.05 to 5 mM	–	–	–	–	–	–
0.05 to 5 mM	1 to 10 µM	1 to 10 µM	–	CC(C)(O)Cn1c2c(c(=O)c3ccccc31)C(=O)n1cccc1-2 [Compound 660a, 4-(2-Hydroxy-2-methylpropyl)-9H-pyrrolizino[1,2-b]quinoline-9,10(4H)-dione]	0.05 to 5 mM	0.05 to 5 mM	0.05 to 5 mM	0.05 to 5 mM	0.05 to 5 mM	0.05 to 5 mM	–	–	–	–	–	–
0.05 to 5 mM	1 to 10 µM	1 to 10 µM	–	CC(C)(O)COc1c2c(nc3ccccc13)-c1cccn1C2=O [Compound 660b, 9-(2-hydroxy-2-methylpropoxy)-10H-pyrrolizino[1,2-b]quinolin-10-one]	0.05 to 5 mM	0.05 to 5 mM	0.05 to 5 mM	0.05 to 5 mM	0.05 to 5 mM	0.05 to 5 mM	–	–	–	–	–	–
0.05 to 5 mM	0.1 to 1 µM	1 to 10 µM	–	CCOC(=O)/C=C/Cn1c2c(c(=O)c3ccccc31)C(=O)n1cccc1-2 [Compound 661a, Ethyl (E)-4-(9,10-dioxo-9H-pyrrolizino[1,2-b]quinolin-4(10H)-yl)but-2-enoate]	< 0.05 mM	0.05 to 5 mM	0.05 to 5 mM	0.05 to 5 mM	0.05 to 5 mM	0.05 to 5 mM	–	–	–	–	–	–
0.05 to 5 mM	1 to 10 µM	1 to 10 µM	–	CCOC(=O)/C=C/COc1c2c(nc3ccccc13)-c1cccn1C2=O [Compound 661b, ethyl (E)-4-((10-oxo-10H-pyrrolizino[1,2-b]quinolin-9-yl)oxy)but-2-enoate]	0.05 to 5 mM	0.05 to 5 mM	0.05 to 5 mM	0.05 to 5 mM	0.05 to 5 mM	0.05 to 5 mM	–	–	–	–	–	–
0.05 to 5 mM	1 to 10 µM	1 to 10 µM	–	O=C1c2c(nc3ccccc3c2OCCN2CCOCC2)-c2cccn21 [Compound 662b, 9-(2-morpholinoethoxy)-10H-pyrrolizino[1,2-b]quinolin-10-one]	0.05 to 5 mM	0.05 to 5 mM	0.05 to 5 mM	0.05 to 5 mM	0.05 to 5 mM	0.05 to 5 mM	–	–	–	–	–	–
0.05 to 5 mM	1 to 10 µM	0.1 to 1 µM	–	O=C1c2c(nc3ccccc3c2OCCCN2CCOCC2)-c2cccn21 [Compound 663b, 9-(3-morpholinopropoxy)-10H-pyrrolizino[1,2-b]quinolin-10-one]	0.05 to 5 mM	0.05 to 5 mM	0.05 to 5 mM	0.05 to 5 mM	0.05 to 5 mM	0.05 to 5 mM	–	–	–	–	–	–
–	1 to 10 µM	1 to 10 µM	0.05 to 5 mM	O=C1c2c(nc3ccccc3c2OCCN2CCCCC2)-c2cccn21 [Compound 665b, 9-(2-(piperidin-1-yl)ethoxy)-10H-pyrrolizino[1,2-b]quinolin-10-one]	–	–	–	–	–	–	0.05 to 5 mM	0.05 to 5 mM	0.05 to 5 mM	0.05 to 5 mM	0.05 to 5 mM	0.05 to 5 mM
–	1 to 10 µM	1 to 10 µM	0.05 to 5 mM	O=C1c2c(nc3ccccc3c2OCCCN2CCCCC2)-c2cccn21 [Compound 666b, 9-(3-(piperidin-1-yl)propoxy)-10H-pyrrolizino[1,2-b]quinolin-10-one]	–	–	–	–	–	–	0.05 to 5 mM	0.05 to 5 mM	0.05 to 5 mM	0.05 to 5 mM	0.05 to 5 mM	0.05 to 5 mM
